Assay results taken from US20250099491A1, “PREVENTION OR TREATMENT OF CARDIOVASCULAR DISEASES WITH HIGH PENETRATION PRODRUGS OF ASPIRIN AND OTHER NSAIDS” (Techfields Inc., priority 2022, published 2025).
Where two headings read alike, the source gives them in different places.

Legend:
[1] = tested on: rats with acute ischemia induced by Middle Cerebral Artery Occlusion (MCAO); assay: Example 17: acute ischemia induced by MCAO in rats; type: in vivo, rat; details: for infarct volume: Day 14 after MCAO, TTC staining, mean±SEM
[2] = rabbit
[3] = tested on: rats with acute ischemia induced by Middle Cerebral Artery Occlusion (MCAO); assay: Example 14: acute ischemia induced by middle cerebral artery occlusion (MCAO) in rats; type: in vivo, rat; details: for infarct volume: Day 14 after MCAO, TTC staining, mean±SEM; for reduction of infarct volumes: comparators: oral 60 mg/kg bid, Edaravone 3 mg/kg i.v. q.d.
[4] = tested on: rats with acute ischemia induced by Middle Cerebral Artery Occlusion (MCAO); assay: Example 15: acute ischemia induced by MCAO in rats; type: in vivo, rat
[5] = tested on: rats with acute ischemia induced by Middle Cerebral Artery Occlusion (MCAO); assay: Example 16: acute ischemia induced by MCAO in rats; type: in vivo, rat; details: for infarct volume: Day 14 after MCAO, TTC staining, mean±SEM; for reduction of infarct volumes: comparators: oral 60 mg/kg bid, Edaravone 3 mg/kg i.v. q.d.
[6] = tested on: rats with acute ischemia induced by Middle Cerebral Artery Occlusion (MCAO); assay: Example 18: acute ischemia induced by MCAO in rats; type: in vivo, rat
[7] = tested on: myocardial infarction in minipigs; assay: Example 20: myocardial infarction efficacy study in minipigs (circumflex coronary artery thrombosis); type: in vivo, minipig; details: aspirin 20 mg/kg/time oral, twice a day
Description: Total 24 male minipigs were used for this study. […] The minipigs were already quarantined and acclimated. Before animal being transferred from holding colony, a physical examination was performed and the acceptability of the animals for the study was evaluated by veterinary. […] [table] […] Under anesthesia, thoracotomy was carried out and the circumflex coronary artery of the heart was exposed. The circumflex coronary artery thrombosis was induced by photochemical reaction. […] Photoirradiation was continued for a 30 min. […] After cutting the femoral artery, thoracotomy was carried out and the heart was removed. […] TTC regent for 5 min. After staining with TTC reagent, the photograph of the heart 5 blocks was taken. All blocks were immersed in 10% formalin neutral buffer solution. The 2nd block appeared large necrotic area was cut sections (thickness: 7-8 μm). Slice was stained with H & E reagent. […] The infarct lesions were defined as a necrotic portion of TTC stained blocks. […] The histopathological alteration (necrosis, inflammation, granulation, etc.) of myocardial infarction was examined using H & E stained slides.

[8] = tested on: middle cerebral artery (MCA) thrombosis model of monkeys; assay: Example 19: middle cerebral artery (MCA) thrombosis model of monkeys; details: aspirin 20 mg/kg/time oral, twice a day
Description: Aspirin was administered orally by gavage using a nasal catheter with a disposal syringe. The catheter was inserted into the stomach through the mouth. The treatment was once per day of MCA thrombosis (day 0), twice per day for 27 days.
The monkeys that had been fastened for at least 12 h were anesthetized with intramuscular administration of ketamine hydrochloride (20 mg/kg), and placed on an operation-bed. Anesthesia was continued with 1.0% isoflurane in O2 gas until 30 min. The inhalation anesthesia was performed with anesthesia machines (SN23402, Hallowell engineering and manufacturing corporation, USA) and respirators (SN23402, Hallowell engineering and manufacturing corporation, USA), and placed on an operation-bed. During anesthesia, body temperature of the animals (rectal temperature) was controlled between 37.0±0.5° C. by heating mattresses (XMTA-7000, Delixi Electric., Ltd.).
Under anesthesia, the left eye was enucleated using a bipolar coagulation device (Valleylab Force 1C, USA). A craniotomy was then performed supralaterally to the left side of the optic nerve. The next day animals were anesthetized with ketamine hydrochloride (20 mg/kg) and the dura and subarachnoid membrane were opened. MCA thrombosis was induced by photochemical reaction. The proximal part of the main MCA trunk. was irradiated with green light wave length 532 nm achieved by use of a xenon lamp (GL532T3-100FC, Shanghai Laser& Optics Century Col., Ltd.). The irradiation was directed by a 3-mm diameteroptic fiber mounted on a micromanipulator. Irradiation was started and rose bengal 20 mg/kg was injected intravenously. Photoirradiation was continued for a 30 min. The dura was then covered with a moist gelatin sponge.
Neurological deficits (see Table 3) were assessed 1, 3, 5, 7, 14 and 28 days after the onset of MCA thrombosis (day 0) in a blind manner. The neurological deficits was scored on consciousness, sensory system, motor system and skeletal muscle coordination, and the total neurological deficit score was calculated by summing the scores of consciousness, sensory system, motor system and skeletal muscle coordination.
The survival monkeys were deeply anesthetized with pentobarbital sodium (35 mg/kg, i.v.) 28 days after the onset of MCA thrombosis. After cutting the atriums of heart, 200 mL of heparinized physiological saline (10 U/mL) was allowed to perfuse the brain via the common carotid arteries, and followed by perfusion of 200 mL of 10% formalin neutral buffer solution. The whole brain was removed, and then was put in pathology sample preservation packs containing 10% formalin neutral buffer solution. For each brain sample, the coronal sections (thickness: 7-8 μm) per site were prepared at 10 sites at 4-mm intervals. Slices per site were each stained with H & E reagent.
Measurement of cerebral infarct lesions was carried out in a blind manner. The infarct lesions in the ischemic side are defined as a necrotic portion compared with that in the contralateral side. The infarcted area of left cerebral hemisphere (A) in the cross-sections was traced and measured using a computerized image analysis system (image J).
When the infarct size of 2 serial section was made into D and D′, the infarcted volume using the thickness (4 mm) of a section is measured in the following formula:
Total infarcted volume is calculated by summing the infarcted volume of the 10 serial sections.

[9] = 3 mg/kg i.v. q.d. 14 days, Day 14 after MCAO, TTC staining, mean±SEM
[10] = comparators: oral 60 mg/kg bid, Edaravone 3 mg/kg i.v. q.d.

CC(=O)Oc1ccc(-c2ccc(F)cc2F)cc1C(=O)OCC1CCCN1.Cl (centres unmarked) [Compound-8, (pyrrolidin-2-yl)methyl 2′,4′-difluoro-4-acetoxy-[1,1′-biphenyl]-3-carboxylate hydrochloride]
infarct volume ([1]; high dose 60 mg/kg topical bid 14 days): 33.53%±1.986 | neuroprotective effect on brain ischemic injury ([1]; high dose group compared to vehicle group): good neuroprotective effect | neurological deficit scores ([1]; high dose groups vs vehicle group): show differences significantly | infarct volume ([1]; low dose 15 mg/kg topical bid 14 days): 37.52%±2.789 | body weight ([1]; low, middle and high dose groups, Day 5-14, vs vehicle group by t-test): increased | infarct volume ([1]; middle dose 30 mg/kg topical bid 14 days): 35.02%±2.827 | The cumulative amount of test compounds ([2]; 1 h): 0.45 mg | The cumulative amount of test compounds ([2]; 2 h): 0.98 mg | The cumulative amount of test compounds ([2]; 4 h): 2.02 mg | The cumulative amount of test compounds ([2]; 8 h): 4.11 mg

CC1=NN(c2ccccc2)C(=O)C1 [Edaravone, reference compound]
infarct volume ([3]; 3 mg/kg i.v. q.d. 14 days): 38.07%±2.031 | reduction of infarct volumes [3]: little reduction | infarct volume [4, 9]: 39.94%±2.256 | reduction of infarct volumes [4, 10]: little reduction | infarct volume ([5]; 3 mg/kg i.v. q.d. 14 days): 39.27%±2.513 | reduction of infarct volumes [5]: little reduction | infarct volume ([1]; 3 mg/kg i.v. q.d. 14 days): 40.35%±2.078 | reduction of infarct volumes [1, 10]: little reduction | infarct volume [6, 9]: 41.33%±2.792 | reduction of infarct volumes [6, 10]: little reduction

CC(=O)Oc1ccccc1C(=O)O [Compound-3, Aspirin]
infarct volume ([3]; 60 mg/kg oral bid 14 days): 36.27%±2.123 | reduction of infarct volumes [3]: little reduction | infarct volume ([5]; 60 mg/kg oral bid 14 days): 37.99%±1.985 | reduction of infarct volumes [5]: little reduction | degeneration of myocardium and myocardial necrosis (histopathology) [7]: moderate | infarct volume (myocardial) ([7]; 28 days after MCA thrombosis): 431 mm^3 | The cumulative amount of test compounds ([2]; 1 h): 0.000 mg | The cumulative amount of test compounds ([2]; 2 h): 0.001 mg | The cumulative amount of test compounds ([2]; 4 h): 0.002 mg | The cumulative amount of test compounds ([2]; 8 h): 0.003 mg | infarct volume ([8]; Day 28 after MCA thrombosis): 1901 mm^3 | Mortality rate [8]: 1/5 | hemorrhage in the penumbra area [8]: showed hemorrhage | liquefaction in the infarct area (histopathology) [8]: moderate | neurological deficits ([8]; until 28 days after MCA thrombosis): tended to show slight recovery
